These results are taken from patent US20260364215A1, “Radiopharmaceutical Compositions Targeting Ephrin Type-A Receptor 2 and Uses Thereof” (PeptiDream Inc., priority 2022, published 2026).

The test addresses T1, Recombinant Human EphA2 Fc Protein (Homo sapiens, UniProt P29317).
T1 construct: purchased Elabscience
Nature of the test: Interaction analysis (kinetics, KD) of peptides and conjugates against EphA2 by SPR, Biacore T200, single-cycle kinetics (Examples B15 and B22). In kind it is binding. The method, then:
Example B15. Interaction Analysis by SPR was Performed Using Biacore (Cytiva)
SPR assay was performed using Biacore T200 (Cytiva).
The HBS-P+ buffer (10 mM HEPES (pH7.4), 150 mM NaCl, 0.05% (v/v) Surfactant P20) containing 1% DMSO was used as running buffer. Recombinant Human EphA2 Fc Protein (Fc tag, Elabscience) was captured by Human Antibody Capture kit (Cytiva). Peptide samples in DMSO were diluted with running buffer, and prepared five serial dilutions. Using these serial dilutions, kinetics of peptides against EphA2 was measured at a flow rate of […] at 25 °C. The method adopted for sample measurement was a single-cycle kinetics method. The analysis was conducted using the evaluation software 3.0 provided with Biacore T200. Kinetics fitting was done on the difference data obtained by subtracting the baseline data from sample measurement data. KD values were calculated based on the association rate constant (ka) and dissociation rate constant (kd).
Example B22: Interaction Analysis of Conjugates by SPR was Performed Using Biacore (Cytiva)
SPR assay was performed using Biacore T200 (Cytiva) according to Example B15.
For orientation: In SPR one partner is held on a chip, and binding of the other changes the refractive index at the surface.

[1] abbreviates: peptides, Biacore T200, 25 °C, Table B12, read-out: SPR Kd.

Like-named read-outs stand apart in the source and are kept apart here. Numbered stars: 1 amine (or outer) side, 2 acyl side, 3 side chain; on linkers, the order of the positions; unused ones are H or OH. Bridge positions count the residues as written; N and C are the ends. Square brackets hold non-standard residues; d marks the D form. Side chains are listed from the residue outwards. Peptide text beside a SMILES is read from it. * marks the point of attachment. DOTA(Lu) = O=C1CN2CCN3CCN(CC(=O)*)CCN(CC2)CC(=O)[O][Lu]([O]1)[O]C(=O)C3; NH(1-deoxy-D-glucityl) = OC[C@@H](O)[C@@H](O)[C@H](O)[C@@H](O)CN*; Trp(1-Me,7-Cl) = Cn1cc(C[C@H](N)C(=O)O)c2cccc(Cl)c21; dPhe(3-CONH2) = NC(=O)c1cccc(C[C@@H](N)C(=O)O)c1; Piperazinyl(4-CH2COOH) = O=C(O)CN1CCN(*)CC1; Trp(1-Me) = Cn1cc(C[C@H](N)C(=O)O)c2ccccc21; NMe3Pal = CN[C@@H](Cc1cccnc1)C(=O)O; NMeF = CN[C@@H](Cc1ccccc1)C(=O)O; hCit = NC(=O)NCCCC[C@H](N)C(=O)O; Gly(cBu) = N[C@H](C(=O)O)C1CCC1; Aad = N[C@@H](CCCC(=O)O)C(=O)O; Cit = NC(=O)NCCC[C@H](N)C(=O)O; NMeN = CN[C@@H](CC(N)=O)C(=O)O; CO = O=C([*:1])[*:2]

As usually defined, the Kd is the equilibrium constant for the complex coming apart.

T1 sequence (P29317 24-534 limits assumed): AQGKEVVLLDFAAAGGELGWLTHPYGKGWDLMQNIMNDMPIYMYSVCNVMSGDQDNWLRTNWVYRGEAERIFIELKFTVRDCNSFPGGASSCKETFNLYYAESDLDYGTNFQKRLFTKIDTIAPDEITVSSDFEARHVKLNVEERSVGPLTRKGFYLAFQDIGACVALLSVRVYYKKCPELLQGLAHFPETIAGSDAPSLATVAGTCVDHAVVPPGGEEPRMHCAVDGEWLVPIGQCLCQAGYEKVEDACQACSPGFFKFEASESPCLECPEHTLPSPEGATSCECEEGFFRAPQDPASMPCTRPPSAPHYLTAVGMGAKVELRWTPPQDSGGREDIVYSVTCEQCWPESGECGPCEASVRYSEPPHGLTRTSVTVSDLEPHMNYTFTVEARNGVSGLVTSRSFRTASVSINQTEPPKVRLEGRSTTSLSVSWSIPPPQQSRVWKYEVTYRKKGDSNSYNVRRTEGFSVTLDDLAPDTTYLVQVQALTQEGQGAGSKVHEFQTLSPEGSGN

Regarding `C[C@H]1NC(=O)CSC[C@@H](C(=O)N[C@H](CCCCNC(=O)CN2CCN3CCN4CCN(CC2)CC(=O)[O][Lu]([O]C(=O)C3)[O]C(=O)C4)C(N)=O)NC(=O)[C@H](CCCC(N)=O)NC(=O)[C@H]([C@@H](C)O)NC(=O)[C@H](Cc2cn(C)c3ccccc23)NC(=O)[C@H](CCC(=O)NC[C@H](O)[C@@H](O)[C@H](O)[C@H](O)CO)NC(=O)[C@H](Cc2cn(C)c3ccccc23)NC(=O)[C@H](Cc2cccnc2)N(C)C(=O)[C@H](CCCC(N)=O)NC(=O)[C@H](C2CCC2)NC(=O)[C@H](CC(N)=O)NC(=O)[C@H](Cc2ccccc2)N(C)C1=O` [PDC_EphA2-00013704-C302] ({CH2CO}-[dA][NMeF]N[Gly(cBu)][Aad](NH2)[NMe3Pal][Trp(1-Me)]E(NH(1-deoxy-D-glucityl))[Trp(1-Me)]T[Aad](NH2)C[dK](DOTA(Lu))-NH2; thioether N-12), the Kd is under 1 nM.
For the compound `CC(C)C[C@@H]1NC(=O)[C@H](CC(N)=O)NC(=O)[C@H](Cc2cccnc2)N(C)C(=O)[C@@H](Cc2cccc(C(N)=O)c2)NC(=O)CSC[C@@H](C(=O)N[C@@H](CCCCNC(=O)CN2CCN3CCN4CCN(CC2)CC(=O)[O][Lu]([O]C(=O)C3)[O]C(=O)C4)C(N)=O)NC(=O)[C@H](Cc2cn(C)c3ccccc23)NC(=O)[C@H](CCCCNC(N)=O)NC(=O)[C@H](Cc2cn(C)c3c(Cl)cccc23)NC(=O)[C@H](Cc2cccnc2)N(C)C(=O)[C@H](CO)NC1=O` [PDC_EphA2-00026601-C301] ({CH2CO}-[dPhe(3-CONH2)][NMe3Pal]NLS[NMe3Pal][Trp(1-Me,7-Cl)][hCit][Trp(1-Me)]CK(DOTA(Lu))-NH2; thioether N-10), the Kd is under 1 nM.
With `CC(C)C[C@@H]1NC(=O)[C@H](CC(N)=O)NC(=O)[C@H](Cc2cccnc2)N(C)C(=O)[C@@H](Cc2cccc(C(N)=O)c2)NC(=O)CSC[C@@H](C(N)=O)NC(=O)[C@H](CC(N)=O)NC(=O)[C@H]([C@@H](C)O)NC(=O)[C@H](Cc2cn(C)c3ccccc23)NC(=O)[C@H](CCCNC(N)=O)NC(=O)[C@H](Cc2cn(C)c3c(Cl)cccc23)NC(=O)[C@H](CC(N)=O)N(C)C(=O)[C@H](CC(N)=O)NC1=O` [PDC_EphA2-00026426] ({CH2CO}-[dPhe(3-CONH2)][NMe3Pal]NLN[NMeN][Trp(1-Me,7-Cl)][Cit][Trp(1-Me)]TNC-NH2; thioether N-12), the Kd under setting [1] was under 1 nM.
In the case of `CN1C(=O)[C@H](CCC(=O)NC[C@H](O)[C@@H](O)[C@H](O)[C@H](O)CO)NC(=O)[C@H](C2CCC2)NC(=O)[C@H](CC(N)=O)NC(=O)[C@H](Cc2cccnc2)N(C)C(=O)[C@@H](Cc2cccc(C(N)=O)c2)NC(=O)CSC[C@@H](C(=O)N[C@@H](CCCCNC(=O)CN2CCN3CCN4CCN(CC2)CC(=O)[O][Lu]([O]C(=O)C3)[O]C(=O)C4)C(N)=O)NC(=O)[C@H](Cc2cn(C)c3ccccc23)NC(=O)[C@H](CCC(=O)NC[C@H](O)[C@@H](O)[C@H](O)[C@H](O)CO)NC(=O)[C@H](Cc2cn(C)c3c(Cl)cccc23)NC(=O)[C@@H]1Cc1cccnc1` [PDC_EphA2-00026604-C301] ({CH2CO}-[dPhe(3-CONH2)][NMe3Pal]N[Gly(cBu)]E(NH(1-deoxy-D-glucityl))[NMe3Pal][Trp(1-Me,7-Cl)]E(NH(1-deoxy-D-glucityl))[Trp(1-Me)]CK(DOTA(Lu))-NH2; thioether N-10), the Kd was under 1 nM.
For the compound `C[C@@H](O)[C@@H]1NC(=O)[C@H](Cc2cn(C)c3ccccc23)NC(=O)[C@H](CCCCNC(=O)N2CCN(CC(=O)O)CC2)NC(=O)[C@H](Cc2cn(C)c3c(Cl)cccc23)NC(=O)[C@H](Cc2cccnc2)N(C)C(=O)[C@H](CCCC(N)=O)NC(=O)[C@H](C2CCC2)NC(=O)[C@H](CC(N)=O)NC(=O)[C@H](Cc2cccnc2)N(C)C(=O)[C@@H](Cc2cccc(C(N)=O)c2)NC(=O)CSC[C@@H](C(N)=O)NC(=O)[C@H](CCCC(N)=O)NC1=O` [PDC_EphA2-00019438] ({CH2CO}-[dPhe(3-CONH2)][NMe3Pal]N[Gly(cBu)][Aad](NH2)[NMe3Pal][Trp(1-Me,7-Cl)]K([CO-Piperazinyl(4-CH2COOH)])[Trp(1-Me)]T[Aad](NH2)C-NH2; thioether N-12), the Kd under setting [1] was under 1 nM.
